The source of these data is ChEMBL document CHEMBL3763113, “Discovery of spirocyclic proline tryptophan hydroxylase-1 inhibitors” (Bioorg Med Chem Lett, 2016).

The target of data set [1] is T1, Tryptophan 5-hydroxylase 1 (Homo sapiens, UniProt P17752).
T1 sequence (P17752 whole entry): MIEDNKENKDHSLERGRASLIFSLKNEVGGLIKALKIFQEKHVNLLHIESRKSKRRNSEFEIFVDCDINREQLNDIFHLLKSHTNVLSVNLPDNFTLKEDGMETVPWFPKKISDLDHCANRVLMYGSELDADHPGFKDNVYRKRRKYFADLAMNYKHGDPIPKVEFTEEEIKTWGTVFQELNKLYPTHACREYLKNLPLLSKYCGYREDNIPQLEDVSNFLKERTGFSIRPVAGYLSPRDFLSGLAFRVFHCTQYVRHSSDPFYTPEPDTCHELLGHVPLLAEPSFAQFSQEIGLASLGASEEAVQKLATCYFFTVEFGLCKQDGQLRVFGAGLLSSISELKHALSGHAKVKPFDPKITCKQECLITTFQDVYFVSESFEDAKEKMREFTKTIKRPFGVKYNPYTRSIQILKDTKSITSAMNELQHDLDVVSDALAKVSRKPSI
Description: Inhibition of TPH1 (unknown origin)

The subject of data set [2] is Rattus norvegicus. Nature of the data set: Decrease in 5-HT levels in rat intestinal mucosa at 10 mg/kg, po qd measured after 16 hrs relative to control. The arrangement: scale not given: the % may be the effect or the level left. In kind it is functional.
Data set [3] in a line: Volume of distribution at steady state in rat at 1 mg/kg, iv. The data set is classed as ADME, organism-based. The note with it: in vivo, read-out: Vdss.
Data set [4] relates to Rattus norvegicus. In words: Decrease in 5-HT levels in rat intestinal mucosa at 30 mg/kg, po qd measured after 16 hrs relative to control. In kind it is functional. More on the design: scale not given: the % may be the effect or the level left.
Data set [5] in a line: Cmax in rat at 25 mg/kg, po. In kind it is ADME, organism-based. More on the design: dose 25 mg/kg, route oral. The settings on record: in vivo.
Data set [6] deals with Rattus norvegicus. Nature of the data set: Decrease in 5-HT levels in rat platelet rich plasma at 30 mg/kg, po qd measured after 16 hrs relative to control. In kind it is functional. The arrangement: scale not given: the % may be the effect or the level left.
Data set [7] is described as follows: AUC(0 to last) in rat at 25 mg/kg, po. The note with it: in vivo. More on the design: dose 25 mg/kg, time 0 - last, route oral. The data set is classed as ADME, organism-based.
Data set [8] deals with Mus musculus. Nature of the data set: Decrease in 5-HT levels in mouse at 50 mg/kg, po administered as single dose for 16 hrs. The data set is classed as functional.
Data set [9] can be described thus: Half life in rat at 1 mg/kg, iv. In kind it is ADME, organism-based. The settings on record: in vivo.
Data set [10] is described as follows: Clearance in rat at 25 mg/kg, po and 1 mg/kg, iv. In kind it is ADME, organism-based. The note with it: in vivo.
Data set [11] deals with Rattus norvegicus. In words: Decrease in 5-HT levels in rat platelet rich plasma at 10 mg/kg, po qd measured after 16 hrs relative to control. In kind it is functional. More on the design: scale not given: the % may be the effect or the level left.
Data set [12] has as its system Mus musculus. In words: Decrease in 5-HT levels in mouse at 10 mg/kg, po administered as single dose for 16 hrs. In kind it is functional.
For data set [13], the system named is Rattus norvegicus. In words: Decrease in 5-HT levels in rat intestinal mucosa at 30 mg/kg, po bid measured after 16 hrs relative to control. The data set is classed as functional. More on the design: scale not given: the % may be the effect or the level left.
Data set [14] concerns Rattus norvegicus. Nature of the data set: Decrease in 5-HT levels in rat platelet rich plasma at 30 mg/kg, po bid measured after 16 hrs relative to control. More on the design: scale not given: the % may be the effect or the level left. In kind it is functional.
Data set [15] relates to Rattus norvegicus. In words: Half life in rat assessed as (S)-8-(2-amino-6-((R)-1-(4-chloro-2-(3-methyl-1H-pyrazol-1-yl)phenyl)-2,2,2-trifluoroethoxy)pyrimidin-4-yl)-2,8-diazaspiro[4.5]decane-3-carboxylic acid at 1 mg/kg, iv. In kind it is ADME, organism-based. The settings on record: in vivo.
For data set [16], the system named is Rattus norvegicus. Nature of the data set: AUC(0 to last) in rat assessed as (S)-8-(2-amino-6-((R)-1-(4-chloro-2-(3-methyl-1H-pyrazol-1-yl)phenyl)-2,2,2-trifluoroethoxy)pyrimidin-4-yl)-2,8-diazaspiro[4.5]decane-3-carboxylic acid at 25 mg/kg, po. The arrangement: dose 25 mg/kg, route oral, time 0 - last. The data set is classed as ADME, organism-based. The note with it: in vivo.

In data set [17] the test system is Rattus norvegicus. In words: Cmax in rat assessed as (S)-8-(2-amino-6-((R)-1-(4-chloro-2-(3-methyl-1H-pyrazol-1-yl)phenyl)-2,2,2-trifluoroethoxy)pyrimidin-4-yl)-2,8-diazaspiro[4.5]decane-3-carboxylic acid at 25 mg/kg, po. In kind it is ADME, organism-based. More on the design: dose 25 mg/kg, route oral. The settings on record: in vivo.

Consider `Cc1ccn(-c2cc(Cl)ccc2[C@@H](Oc2cnc(N3CCC4(CC3)CNC(C(=O)O)C4)cn2)C(F)(F)F)n1` (stereo partly specified), for which the 50% inhibitory concentration (IC50) (usually the concentration needed to halve the response being measured) in data set [1] turned out to be 3.42 µM.

The compound `Cc1ccn(-c2cc(Cl)ccc2[C@@H](Oc2cnnc(N3CCC4(CC3)CNC(C(=O)O)C4)c2)C(F)(F)F)n1` (stereo partly specified) came in with an IC50 in data set [1] of 5.93 µM.

Take `CCOC(=O)[C@@H]1CC2(CCN(c3cc(O[C@H](c4ccc(Cl)cc4-n4ccc(C)n4)C(F)(F)F)nc(N)n3)CC2)CN1`: the Activity amounted to 76% in the data set with Rattus norvegicus [2]; 62% with Rattus norvegicus [4]; 71% in the data set on Rattus norvegicus [6]; 76% with Rattus norvegicus [11]; 38% in the data set with Rattus norvegicus [13]; 72% with Rattus norvegicus [14]. For the same compound, in [3], the Vd came out at 3.1 L/kg. Besides, the Cmax (commonly the highest concentration seen after dosing) in data set [5] amounted to 249 ng/mL; with Rattus norvegicus [17], 2253 ng/mL. In data set [7], the AUC(0-t) (in general, exposure summed from dosing to a finite time, without extrapolation to infinity) was found to be 140 ng·h/mL. Besides, the inhibition in vivo (in general, the drop in the measured response relative to a control, in per cent) at 50 mg/kg in the data set on Mus musculus [8] came to 56%. In addition, the half-life (as a rule, the time needed for the level to fall by half in the phase considered) in data set [9] was 24 min. In [10], this compound showed a clearance of 178 mL/min/kg. This compound came in with an inhibition in vivo at 10 mg/kg in the data set on Mus musculus [12] of 32%. Moreover, the t1/2 with Rattus norvegicus [15] was determined as 271 min. In the data set on Rattus norvegicus [16], the AUClast amounted to 2924 ng·h/mL.

`Cc1ccn(-c2cc(Cl)ccc2[C@@H](Oc2nc(N)nc(N3CCC4(CC3)CNC(C(=O)O)C4)n2)C(F)(F)F)n1` (stereo partly specified): the midpoint of inhibition in data set [1], the IC50, lay at 2.27 µM.

Take `Cc1ccn(-c2cc(Cl)ccc2[C@@H](Oc2cncc(N3CCC4(CC3)CNC(C(=O)O)C4)n2)C(F)(F)F)n1` (stereo partly specified): the IC50 in data set [1] turned out to be 20 µM.

`Cc1ccn(-c2cc(Cl)ccc2[C@@H](Oc2ccnc(N3CCC4(CC3)CNC(C(=O)O)C4)c2)C(F)(F)F)n1` (stereo partly specified): 0.211 µM corresponded to half-maximal inhibition in [1] (IC50).
